A short description of data set [1]: Cytotoxicity assay (sulforhodamine B, CC50), Human Hepatoma. The class given is cell-based. The settings on record: human; for CC50 at 4 days: 4 days incubation; for EC50 at 4 days: Table 13. Here is the method: (§1) Cells were seeded at a rate of between 5×10^3 and 5×10^4/well into 96-well plates in growth medium overnight at 37° C. in a humidified CO2 (5%) atmosphere. New growth medium containing serial dilutions of the drugs was then added. After incubation for 4 days, cultures were fixed in 50% TCA and stained with sulforhodamineB. The optical density was read at 550 nm. The cytotoxic concentration was expressed as the concentration required to reduce the cell number by 50% (CC50).

Data set [2] has as its system Human bone marrow cells (BFU-E). Put plainly: Human bone marrow toxicity, BFU-E clonogenic assay. The data set is classed as cell-based. The settings on record: human bone marrow colony formation, 14 to 18 days. From the text: (§2) Human bone marrow cells were collected from normal healthy volunteers and the mononuclear population was separated by Ficoll-Hypaque gradient centrifugation as described previously by Sommadossi J-P, Carlisle R. “Toxicity of 3′-azido-3′-deoxythymidine and 9-(1,3-dihydroxy-2-propoxymethyl)guanine for normal human hematopoietic progenitor cells in vitro” Antimicrobial Agents and Chemotherapy 1987; 31:452-454; and Sommadossi J-P, Schinazi R F, Chu C K, Xie M-Y. “Comparison of cytotoxicity of the (−)- and (+)-enantiomer of 2′,3′-dideoxy-3′-thiacytidine in normal human bone marrow progenitor cells” Biochemical Pharmacology 1992; 44:1921-1925. The culture assays for CFU-GM and BFU-E were performed using a bilayer soft agar or methylcellulose method. Drugs were diluted in tissue culture medium and filtered. After 14 to 18 days at 37° C. in a humidified atmosphere of 5% CO2 in air, colonies of greater than 50 cells were counted using an inverted microscope. The results in Table 4 are presented as the percent inhibition of colony formation in the presence of drug compared to solvent control cultures.

Data set [3] relates to BVDV (strain NADL). The data set is described as follows: Cell Protection Assay (CPA). The data set is classed as cell-based, Bovine Viral Diarrhea virus. How it is done:
The assay was performed essentially as described by Baginski, S. G.; Pevear, D. C.; Seipel, M.; Sun, S. C. C.; Benetatos, C. A.; Chunduru, S. K.; Rice, C. M. and M. S. Collett “Mechanism of action of a pestivirus antiviral compound” PNAS USA 2000, 97(14), 7981-7986. MDBK cells (ATCC) were seeded onto 96-well culture plates (4,000 cells per well) 24 hours before use. After infection with BVDV (strain NADL, ATCC) at a multiplicity of infection (MOI) of 0.02 plaque forming units (PFU) per cell, serial dilutions of test compounds were added to both infected and uninfected cells in a final concentration of 0.5% DMSO in growth medium. Each dilution was tested in quadruplicate. Cell densities and virus inocula were adjusted to ensure continuous cell growth throughout the experiment and to achieve more than 90% virus-induced cell destruction in the untreated controls after four days post-infection. After four days, plates were fixed with 50% TCA and stained with sulforhodamine B. The optical density of the wells was read in a microplate reader at 550 nm. The 50% effective concentration (EC50) values were defined as the compound concentration that achieved 50% reduction of cytopathic effect of the virus. FIGS. 4 and 5 provide a graphical illustration of the methodology used to arrive at the 50% effective concentration (EC50) values for β-D-2′-CH3-riboG and ribavirin. FIG. 6 compares the results of the CPA for β-D-2′-CH3-riboG, β-D-2′-CH3-riboC, riboU, β-D-2′-CH3-riboA and ribavirin

Data set [4] concerns BVDV. Put plainly: Plaque Reduction Assay. The class given is cell-based, Bovine Viral Diarrhea virus. Here is the method:
For each compound the effective concentration was determined in duplicate 24-well plates by plaque reduction assays. Cell monolayers were infected with 100 PFU/well of virus. Then, serial dilutions of test compounds in MEM supplemented with 2% inactivated serum and 0.75% of methyl cellulose were added to the monolayers. Cultures were further incubated at 37° C. for 3 days, then fixed with 50% ethanol and 0.8% Crystal Violet, washed and air-dried. FIG. 7 is a graphical illustration of the results from the Plaque Reduction Assay. FIG. 8 is an image of BVDV plaque formation in the presence of increasing concentrations of β-D-2′-CH3-riboU.
On the technique in general: Plaques are areas of infected cells; plaque reduction assays count them against a control.

A short description of data set [5]: in vitro. The settings on record: cattle.
Data set [6] deals with PICO (Cosxackie B1 and Polio Sabin). The data set is described as follows: organism not typed. The data set is classed as cell-based. The settings on record: Vero, read-out: Comparative Antiviral Activity EC50 PICO.
For data set [7], the system named is BVDV (NADL strain). The data set is described as follows: Yield Reduction Assay. The class given is cell-based, Bovine Viral Diarrhea virus. Here is the method: The assay was performed as described by Baginski, S. G.; Pevear, D. C.; Seipel, M.; Sun, S. C. C.; Benetatos, C. A.; Chunduru, S. K.; Rice, C. M. and M. S. Collett “Mechanism of action of a pestivirus antiviral compound” PNAS USA 2000, 97(14), 7981-7986, with minor modifications. Briefly, MDBK cells were seeded onto 24-well plates (2×10^5 cells per well) 24 hours before infection with BVDV (NADL strain) at a multiplicity of infection (MOI) of 0.1 PFU per cell. Serial dilutions of test compounds were added to cells in a final concentration of 0.5% DMSO in growth medium. Each dilution was tested in triplicate. After three days, cell cultures (cell monolayers and supernatants) were lysed by three freeze-thaw cycles, and virus yield was quantified by plaque assay. Briefly, MDBK cells were seeded onto 6-well plates (5×10^5 cells per well) 24 h before use. Cells were inoculated with 0.2 mL of test lysates for 1 hour, washed and overlaid with 0.5% agarose in growth medium. After 3 days, cell monolayers were fixed with 3.5% formaldehyde and stained with 1% crystal violet (w/v in 50% ethanol) to visualize plaques. FIG. 9 is a graphical illustration of the results from the Yield Reduction Assay. FIG. 8 is an image of BVDV yield reduction in the presence of increasing concentrations of β-D-2′-CH3-riboC.

Data set [8] deals with Human bone marrow cells (CFU-GM). Put plainly: Human bone marrow toxicity, CFU-GM clonogenic assay. The class given is cell-based. The settings on record: read-out: IC50 CFU-GM.
Source text: as §2

Data set [9] deals with YFV-17D. Put plainly: microbe, parasite or virus in culture. The class given is cell-based, Yellow fever virus vaccine strain 17D.
A short description of data set [10]: Cytotoxicity assay (sulforhodamine B, CC50), MDBK. The settings on record: cattle; MDBK cells, 4 days incubation. The data set is classed as cell-based. Here is the method: as §1
Data set [11] is described as follows: in vitro.
Data set [12] concerns MDBK cells.
For data set [13], the system named is HepG2 cells. The data set is described as follows: Mitochondria toxicity assay (L-lactic acid assay). The data set is classed as cell-based. The settings on record: 4 day drug exposure. Here is the method:
HepG2 cells were cultured in 12-well plates as described above and exposed to various concentrations of drugs as taught by Pan-Zhou X-R, Cui L, Zhou X-J, Sommadossi J-P, Darley-Usmer V M. “Differential effects of antiretroviral nucleoside analogs on mitochondrial function in HepG2 cells” Antimicrob Agents Chemother 2000; 44:496-503. Lactic acid levels in the culture medium after 4 day drug exposure was measured using a Boehringer lactic acid assay kit. Lactic acid levels were normalized by cell number as measured by hemocytometer count.

For data set [14], the system named is various cell systems.
Data set [15] relates to Bovine Viral Diarrhea virus (BVDV). Put plainly: microbe, parasite or virus in culture. The data set is classed as cell-based.
Data set [16] concerns VSV. Put plainly: microbe, parasite or virus in culture. The data set is classed as cell-based. The settings on record: Vesicular stomatitis virus, read-out: Comparative Antiviral Activity EC50 VSV.
The test system of data set [17] is HIV-1. The data set is described as follows: Comparative antiviral activity (EC50), HIV-1. The data set is classed as cell-based. The settings on record: Human immunodeficiency virus 1; Table 11.
The mark [18] stands for this setting: Huh7 cells (human hepatoma), Huh7 cells.
The mark [19] stands for this setting: Bovine viral diarrhea virus isolates and strains, 96 h, MDBK cells infected with BVDV, 50% reduction of cytopathic effect, four days, read-out: EC50.
[20] abbreviates: Bovine viral diarrhea virus isolates and strains, Table 13, BVDV, read-out: Cell Protection (EC50).
The mark [21] stands for this setting: Bovine viral diarrhea virus isolates and strains, Table 13, BVDV, 90% virus suppression, read-out: Plaque Reduction (EC90).
Where [22] appears, read: Bovine viral diarrhea virus isolates and strains, Table 13, BVDV.
Where [23] appears, read: Yellow fever virus, read-out: Comparative Antiviral Activity EC50 YFV.
Where [24] appears, read: Bovine viral diarrhea virus isolates and strains, read-out: Comparative Antiviral Activity EC50 BVDV.

Where two headings read alike, the source gives them in different places. Where only a bound is given, the exact number is not on record here.

As usually defined, the EC50 is the concentration giving half of the maximal effect. What is called IC50 is the concentration that gives 50% inhibition. Broadly, the EC90 is the point of the concentration-response curve where the effect stands at 90%.

`NC(=O)c1ncn([C@@H]2O[C@H](CO)[C@@H](O)[C@H]2O)n1` [Ribavirin, reference compound]: the CC50 at 4 days was 150 µM in data set [1] (HepG2 cells (human hepatoma), HepG2 cells, read-out: CC50 HepG2); 25 µM in data set [1] (Huh7 cells (human hepatoma), Huh7 cells, read-out: CC50 Huh7); 5 µM in data set [10]. The same molecule had a concentration for a half-maximal effect (EC50) at 4 days in data set [1] (setting [18]) of 20 µM. Also, the IC50 was about 1 µM in data set [2] (Bone marrow cell) and about 5 µM in data set [8] (Homo sapiens, CFU-GM). Besides, the half-maximal effective concentration (EC50) in data set [3] (setting [19]) is over 3 µM; in data set [3] (setting [20]), over 3 µM; in [6], over 30 µM; in data set [9] (setting [23]), 30 µM. The EC90 is over 200 µM in [4] (setting [21]) and over 20 µM in data set [7] (setting [22]). The CC50 was 5 µM in data set [5], 11 µM in data set [11] (African green monkey) and 50 µM in data set [11] (hamster). Besides, the “Yield Reduction 6 log10 reduction (μM)” value in data set [7] was “toxic”.
For `C[C@@]1(O)[C@H](O)[C@@H](CO)O[C@H]1n1ccc(N)nc1=O` [β-D-2′-CH3-riboC], the half-maximal inhibitory concentration (IC50) in data set [2] is over 10 µM; in data set [8] (human bone marrow colony formation, 14 to 18 days), over 10 µM. Moreover, the 50% effective concentration (EC50) was determined as 2 µM in data set [3] (read-out: Cell Protection (EC50)); 2 µM in [3] (read-out: EC50); 3.7 µM in data set [15] (read-out: BVDV EC50); 70 µM in [9] (Table 12, reduce the plaque number by 50%, YFV-BHK, read-out: YFV EC50). In addition, the CC50 was 100 µM in data set [12]; over 100 µM in data set [14]; over 100 µM in data set [14] (read-out: YFV CC50, Table 12, reduce the viability of cells by 50%, YFV-BHK system). For the same molecule, the EC90 is under 9 µM in data set [4] (read-out: EC90), under 9 µM in data set [4] (read-out: Plaque Reduction (EC90)) and under 4 µM in data set [7]. Also, the lactate in data set [13] (Conc. 1 μM) is reported as 2.52 mg/10^6 cell; in [13] (Conc. 10 μM) it was 2.36 mg/10^6 cell; in data set [13] (Conc. 50 μM), 2.26 mg/10^6 cell; in [13] (Conc. 100 μM), 2.21 mg/10^6 cell. Also, the “lactate % of Control” value in data set [13] (Conc. 1 μM) worked out at 115.3%; in data set [13] (Conc. 10 μM), 107.9%; in [13] (Conc. 50 μM) it was 103.4%; in [13] (Conc. 100 μM) it was 101.2%. Besides, the “Conc. for 6-log Reduction” value in [7] is listed as 20 μM. The “Yield Reduction 6 log10 reduction (μM)” value in [7] worked out at 20 μM.
In turn, `CC1(O)[C@@H](O)[C@@H](CO)O[C@H]1n1cnc2c(N)ncnc21` (stereo partly drawn) [β-D-2′-CH3-riboA, 2′-C-methylriboadenine] came in with an EC50 at 4 days in data set [1] (setting [18]) of 50 µM. For the same molecule, the IC50 in data set [2] (Bone marrow cell) was over 100 µM; in data set [8] (Homo sapiens, CFU-GM), over 100 µM. In addition, the EC50 in data set [3] (setting [19]) is 2 µM; in data set [3] (setting [20]), 2 µM; in [16] it was over 100 µM; in [17] it was over 6.6 µM; in [6], 5 µM; in [15] (setting [24]) it was 0.1 µM. Further, in data set [9] (setting [23]), the EC50 came out at 0.2 µM. The concentration for an effect of 90% (EC90) was under 3 µM in data set [4] (Bovine viral diarrhea virus isolates and strains, 72 h, concentration to obtain 90% virus suppression, 3 days, read-out: EC90); under 3 µM in data set [4] (setting [21]); under 2 µM in [7] (setting [22]). Also, the CC50 in [5] was 20 µM; in data set [11], 75 µM; in data set [11] (African green monkey), 22 µM; in [11] (hamster), 22 µM; in data set [11] (human) it was 6.6 µM. Further, in data set [7], the “Conc. for 6-log Reduction” value is given as 9 μM. Also, the “Yield Reduction 6 log10 reduction (μM)” value in data set [7] is given as 9 μM.
For `C[C@@]1(n2cnc3c(N)ncnc32)O[C@H](CO)[C@H](O)C1O` (stereo partly drawn) [β-D-1′-CH3-riboA, 1′-C-methylriboadenine], the half-maximal effective concentration (EC50) was over 100 µM in data set [16]; over 18 µM in data set [17]; 51 µM in data set [6]; 10 µM in [15] (setting [24]); 7 µM in data set [9] (setting [23]). For the same molecule, the CC50 in data set [11] is over 100 µM; in data set [11] (African green monkey), over 100 µM; in data set [11] (hamster) it was 200 µM; in data set [11] (human), 18 µM.

(Values after patent publication US20180235993A1 (priority 2000, published 2018).)
